Here are results for eight compounds from ChEMBL document CHEMBL1201862, “PubChem BioAssay data set” (2004).

Calls of active or inactive are those of the source. Some results are limits rather than exact numbers.

The target of assay [1] is Mitogen-activated protein kinase 10 (Homo sapiens, UniProt P53779). Description: Dose response biochemical screening assay for inhibitors of c-Jun N-Terminal Kinase 3 (JNK3). [Related pubchem assays: 746 ].
In assay [2] the target is T1, Protein Tat (Human immunodeficiency virus type 1 group M subtype B (isolate HXB2)(HIV-1), UniProt P04608).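 Further: tat binding to TAR RNA read out by fluorescence polarization.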
T1 sequence (P04608 whole entry): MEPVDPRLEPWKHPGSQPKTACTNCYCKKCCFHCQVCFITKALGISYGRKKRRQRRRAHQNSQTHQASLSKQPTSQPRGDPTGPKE
It is filed as functional.

Assay [3] concerns the target T2, Tyrosine-protein phosphatase non-receptor type 7 (Homo sapiens, UniProt P35236).
T2 sequence (P35236 whole entry): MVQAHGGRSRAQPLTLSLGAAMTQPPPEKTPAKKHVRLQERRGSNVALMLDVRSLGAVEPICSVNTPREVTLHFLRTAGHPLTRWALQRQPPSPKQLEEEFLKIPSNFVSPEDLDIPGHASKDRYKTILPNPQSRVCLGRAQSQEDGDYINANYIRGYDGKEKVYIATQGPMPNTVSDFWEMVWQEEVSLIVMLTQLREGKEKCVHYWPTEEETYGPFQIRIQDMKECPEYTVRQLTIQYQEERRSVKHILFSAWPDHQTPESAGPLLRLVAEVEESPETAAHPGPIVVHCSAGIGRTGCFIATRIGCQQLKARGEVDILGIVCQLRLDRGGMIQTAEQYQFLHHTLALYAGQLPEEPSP
Kind of assay: inhibitors of human HePTP phosphatase, […], biochemical, absorbance, leukemia target (AID 521). It is filed as functional.

Assay [4] addresses Glyceraldehyde-3-phosphate dehydrogenase (Homo sapiens, UniProt P04406).
Assay [5] concerns the target T3, Bcl-2-related protein A1 (Mus musculus, UniProt Q07440).
T3 sequence (Q07440 whole entry): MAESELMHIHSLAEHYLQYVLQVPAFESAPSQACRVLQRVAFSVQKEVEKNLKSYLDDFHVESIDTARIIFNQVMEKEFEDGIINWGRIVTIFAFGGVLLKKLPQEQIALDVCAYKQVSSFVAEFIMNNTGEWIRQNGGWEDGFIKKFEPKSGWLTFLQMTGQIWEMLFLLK
Kind of assay: Bfl-1 inhibitors blocking BH3 peptide binding, confirmation, biochemical, TR-FRET, mouse Bfl-1 (AID 621).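 Further: TR-FRET binding of GST-Bfl-1 to FITC-labelled Bid peptide via terbium antibody.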 Background: In TR-FRET formats the signal depends on donor and acceptor labels being close together.

Assay [6] concerns the target T3, Bcl-2-related protein A1. Description: Bfl-1 binding inhibitors, SAR follow-up, biochemical, fluorescence polarization (AID 1070). On the technique in general: Fluorescence polarisation rises when a labelled molecule tumbles more slowly, as on binding a larger partner.
For assay [7], the target named is T4, Microphthalmia-associated transcription factor (Homo sapiens, UniProt O75030).
T4 sequence (O75030 whole entry): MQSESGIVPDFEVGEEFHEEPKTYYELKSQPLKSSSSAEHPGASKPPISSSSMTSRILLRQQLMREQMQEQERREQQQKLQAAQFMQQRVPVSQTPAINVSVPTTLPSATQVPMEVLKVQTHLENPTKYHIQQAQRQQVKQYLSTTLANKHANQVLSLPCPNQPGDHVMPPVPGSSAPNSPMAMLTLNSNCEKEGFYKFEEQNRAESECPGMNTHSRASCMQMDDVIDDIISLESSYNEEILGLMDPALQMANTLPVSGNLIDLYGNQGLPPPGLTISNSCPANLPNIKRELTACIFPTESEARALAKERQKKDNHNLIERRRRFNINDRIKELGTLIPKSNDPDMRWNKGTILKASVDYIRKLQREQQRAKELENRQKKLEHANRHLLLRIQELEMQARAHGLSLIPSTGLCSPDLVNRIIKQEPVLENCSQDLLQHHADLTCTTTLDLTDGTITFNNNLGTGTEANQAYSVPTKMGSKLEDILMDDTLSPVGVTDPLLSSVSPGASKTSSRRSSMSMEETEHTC
Description: TRPM1 promoter luciferase signal decrease, dose response, MITF inhibitor project, cell-based, SK-MEL-5, cherry-picked, set 3 (AID 493073).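 Further: SK-MEL-5 melanoma cells with luciferase driven by the MITF target TRPM1 promoter.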 Type of assay: functional.

For assay [8], the target named is T5, RNA-editing ligase 1, mitochondrial (Trypanosoma brucei brucei, UniProt P86926).
T5 sequence (P86926 whole entry): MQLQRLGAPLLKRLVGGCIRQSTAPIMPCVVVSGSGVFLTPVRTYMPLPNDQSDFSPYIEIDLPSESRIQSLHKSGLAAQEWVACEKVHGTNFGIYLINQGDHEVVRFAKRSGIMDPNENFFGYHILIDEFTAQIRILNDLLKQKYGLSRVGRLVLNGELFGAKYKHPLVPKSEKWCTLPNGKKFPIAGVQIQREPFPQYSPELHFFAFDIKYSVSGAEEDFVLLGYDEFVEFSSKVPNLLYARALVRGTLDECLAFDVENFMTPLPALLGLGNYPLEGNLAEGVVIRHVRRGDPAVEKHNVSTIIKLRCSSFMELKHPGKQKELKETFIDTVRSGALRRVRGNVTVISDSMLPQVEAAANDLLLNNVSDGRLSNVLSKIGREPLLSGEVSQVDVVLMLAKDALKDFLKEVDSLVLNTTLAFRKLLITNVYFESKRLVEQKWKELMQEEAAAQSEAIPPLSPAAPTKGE
Kind of assay: TbREL1 ligase inhibitors, dose response, biochemical, fluorescence, Trypanosoma brucei (AID 1117295). Type of assay: functional.

Assay [9] can be described thus: Luminescence-based cell-based high throughput dose response assay to identify activators of the DAF-12 from the parasite S. stercoralis (ssDAF-12). It is filed as functional.
The target of assay [10] is T6, Oxysterols receptor LXR-beta (Homo sapiens, UniProt P55055).
T6 sequence (P55055 whole entry): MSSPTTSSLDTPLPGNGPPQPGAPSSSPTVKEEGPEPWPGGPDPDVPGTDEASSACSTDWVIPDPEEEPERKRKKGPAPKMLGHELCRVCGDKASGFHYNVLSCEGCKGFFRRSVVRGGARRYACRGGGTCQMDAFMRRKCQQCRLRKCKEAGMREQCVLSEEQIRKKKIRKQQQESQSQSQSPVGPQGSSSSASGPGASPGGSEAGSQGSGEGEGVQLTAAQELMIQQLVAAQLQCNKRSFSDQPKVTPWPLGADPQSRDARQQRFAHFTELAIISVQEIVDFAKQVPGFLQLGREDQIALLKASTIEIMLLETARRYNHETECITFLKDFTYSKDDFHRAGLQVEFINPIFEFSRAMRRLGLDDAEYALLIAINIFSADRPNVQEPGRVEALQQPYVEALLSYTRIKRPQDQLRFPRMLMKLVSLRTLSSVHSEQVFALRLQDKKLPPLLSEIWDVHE
Kind of assay: LXR agonists, Gal4 luciferase reporter, dose response, counter-screen for ssDAF-12 agonist project, cell-based, luminescence, HEK293, S. stercoralis campaign (AID 720737). It is filed as functional. Particulars: read-out: IC50 (the source's name). On the technique in general: A reporter such as luciferase makes a cellular process visible.

Assay [11] is described as follows: NIH-3T3 fibroblast cytotoxicity, dose response, cytotoxicity control, cell-based, fluorescence, Alamar Blue, secondary assay (AID 2327).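 Further: NIH-3T3 mouse fibroblasts cultured with fluconazole at 8 µg/mL.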 It is filed as functional.
Assay [12] can be described thus: C. albicans growth with fluconazole, confirmation, fluorescence, retest (AID 2467). Type of assay: functional, cell-based.

A word on the IC50: it is the concentration at which inhibition is half-maximal. As usually defined, the AC50 is the concentration giving half of the maximal activity seen.

Glyceraldehyde-3-phosphate dehydrogenase, sequence (P04406 whole entry): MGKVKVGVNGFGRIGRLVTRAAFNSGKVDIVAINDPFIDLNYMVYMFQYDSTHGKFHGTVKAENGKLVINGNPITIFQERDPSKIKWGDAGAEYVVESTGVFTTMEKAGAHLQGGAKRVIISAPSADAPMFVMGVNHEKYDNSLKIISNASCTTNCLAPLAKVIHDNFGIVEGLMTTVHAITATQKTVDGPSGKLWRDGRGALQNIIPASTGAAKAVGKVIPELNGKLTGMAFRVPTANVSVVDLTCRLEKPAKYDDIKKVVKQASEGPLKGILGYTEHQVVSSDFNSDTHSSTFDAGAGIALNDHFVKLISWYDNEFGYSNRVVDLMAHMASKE
Mitogen-activated protein kinase 10, sequence (P53779 whole entry): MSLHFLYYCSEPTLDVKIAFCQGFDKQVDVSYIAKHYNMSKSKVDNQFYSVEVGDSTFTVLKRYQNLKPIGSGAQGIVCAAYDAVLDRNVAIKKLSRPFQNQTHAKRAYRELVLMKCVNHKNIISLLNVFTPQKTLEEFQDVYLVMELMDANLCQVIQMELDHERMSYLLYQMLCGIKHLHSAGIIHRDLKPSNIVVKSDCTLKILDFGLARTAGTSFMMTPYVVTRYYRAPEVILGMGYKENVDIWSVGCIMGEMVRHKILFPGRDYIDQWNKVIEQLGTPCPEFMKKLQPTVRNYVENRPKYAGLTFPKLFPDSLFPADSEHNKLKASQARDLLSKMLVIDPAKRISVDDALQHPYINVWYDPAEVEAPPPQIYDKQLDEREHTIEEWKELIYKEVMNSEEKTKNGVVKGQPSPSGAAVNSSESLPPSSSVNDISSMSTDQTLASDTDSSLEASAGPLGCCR

For `NC(=O)c1c(NC(=O)Cc2cccs2)sc2c1CCC2`, the IC50 in [1] was 28.3 µM (not active); in assay [2], > 100 µM (active).

In the case of `CN(Cc1nc(-c2cccnc2)no1)S(=O)(=O)c1ccc(Br)cc1`, the IC50 in assay [3] is listed as > 100 µM (not active).

With `O=C1C(Cl)=C(Cl)C(=O)N1c1ccc(Cl)nc1`, the IC50 in [4] was > 100 µM (not active); in assay [5], 33.8 µM (active); in assay [6] it was > 100 µM (not active).

For `CC1CCN(C2CC(=O)N(c3ccc(Cl)c(Cl)c3)C2=O)CC1` (stereo not drawn), the IC50 in assay [4], in [5] and in [6] was > 100 µM (not active) throughout.

Take `COc1ccc2nc(C)cc(NCc3cccc(C(F)(F)F)c3)c2c1`: the AC50 in [7] is 18.2 µM (active). The IC50 in [8] was > 96.6 µM (inactive).

Consider `Cn1cnc(NCc2ccccc2)c1[N+](=O)[O-]`, for which the IC50 in assay [9] is > 67.5 µM (inactive). For the same compound, the EC50 in [10] is > 67.5 µM (inactive).

As for `Cc1n[nH]c(C)c1S(=O)(=O)N1CCCC(C(=O)Nc2ccc3c(c2)OCCO3)C1` (stereo not drawn), in assay [3], the IC50 is reported as > 100 µM (not active).

`Cc1cccc(NC(S)=NNC(=O)c2cc3c(s2)CCC(C)C3)c1C` (stereo not drawn): the EC50 is > 150 µM (inactive) in assay [11], > 38 µM (not active) in [12] and > 67.5 µM (inactive) in assay [10]. Moreover, the IC50 in assay [9] is > 67.5 µM (inactive).
